Key:
[1] = test system: breast cancer MCF-7 cells; assay: Inhibition of growth and change of morphology of MCF-7 cells; assay type: cell-based, human; details: 2.5, 5, 7.5 and 10 µg/mL; for morphology of MCF-7 cells: 72 hours (Fig. 13(A), Fig. 14(A)); for growth of MCF-7 cancer cells: sodium butyrate 4mM, observed and counted after 72 hours (Fig. 13, Fig. 14)
Protocol: The breast cancer MCF-7 cells, were cultured in Dulbecco's modified Eagle's medium (DMEM; Gibco) supplemented with penicillin G, streptomycin sulphate, 0.5 mM of L-glutamine and 10% fetal bovine serum (FBS; Gibco) at 37 °C, 5% CO2 and 95% relative humidity. The cells were seeded at a density of 3×10^5 per well of 6-well plates. After 24 hours, the cells were treated with different concentrations of compound NBM-HD-1 and 4mM sodium butyrate being used as the positive control. The cells were observed after 48 hours and counted after 96 hours. […] In Fig. 8(A), after the cells were incubated with 2.5 µg/mL (Fig. 8(A)-b), 5 µg/mL (Fig. 8(A)-c) and 10 µg/mL (Fig. 8(A)-d) of NBM-HD-1 for 48 hours, the density of MCF-7 cells reduced dramatically in comparison with that of the control group (Fig. 8(A)-a). The morphology of the MCF-7 cells in the experimental group changed in comparison with that in the control group. […] The results of the cell counting (FIG. 8(B)) indicate that, similar to sodium butyrate, NBM-HD-1 inhibits cell growth.
MCF-7 cancer cells were seeded at a density of 3×10^5 per well in 6-well plates. After 24 hours, the cells were treated with different concentrations of compound NBM-HD-2 and 4mM sodium butyrate being used as the positive control. The cells were observed and counted after 72 hours. […] In Fig. 13(A), after the cells were incubated with 2.5 µg/mL (Fig. 13(A)-c), 5 µg/mL (Fig. 13(A)-d), 7.5 µg/mL (Fig. 13(A)-e) and 10 µg/mL (Fig. 13(A)-f) of NBM-HD-2 for 72 hours, the density of MCF-7 cells reduced dramatically in comparison with that of the control group (Fig. 13(A)-a). The morphology of the MCF-7 cells in the experimental group changed in comparison with that in the control group.
MCF-7 cancer cells were seeded at a density of 3×10^5 per well of 6-well plates. After 24 hours, the cells were treated with different concentrations of compound NBM-HD-3 and 4mM sodium butyrate, which was being used as the positive control. The cells were observed and counted after 72 hours. […] In Fig. 14(A), after the cells were incubated with 2.5 µg/mL (Fig. 14(A)-c), 5 µg/mL (Fig. 14(A)-d), 7.5 µg/mL (Fig. 14(A)-e) and 10 µg/mL (Fig. 14(A)-f) of NBM-HD-3 for 72 hours, the density of MCF-7 cells reduced dramatically in comparison with that of the control group (Fig. 14(A)-a). The morphology of the MCF-7 cells in the experimental group changed in comparison with that in the control group. […] The results of the cell counting (FIG. 14(B)) indicate that, similar to sodium butyrate, NBM-HD-3 inhibits cell growth.

[2] = test system: human giloblastoma DBTRG-05MG cancer cells; assay: Inhibition of growth and change of morphology of DBTRG-05MG cells; assay type: cell-based; details: NBM-HD-1 2.5, 5 and 10 µg/mL, sodium butyrate 4 mM; 72 hours; density and cell counting (Fig. 7)
Protocol: The human giloblastoma DBTRG-05MG cancer cells were cultured in RPMI medium 1640 (Gibco) supplemented with penicillin G, streptomycin sulphate, 0.5 mM of L-glutamine and 10% fetal bovine serum (FBS; Gibco), 100mh/L sodium pyruvate (Gibco), and 1% NEAA (Gibco) at 37 °C, 5% CO2 and 95% relative humidity. For these experiments, the cells were seeded at a density of 3×10^5 per well of 6-well plates. After 24 hours, the cells were treated with different concentrations of NBM-HD-1 and 4 mM sodium butyrate. The cells were observed and counted after 72 hours. […] In 05MG cells (Fig. 7(A)), after incubation with 2.5 µg/mL (Fig. 7(A)-b), 5 µg/mL (Fig. 7(A)-c) and 10 µg/mL (Fig.7(A)-d) of NBM-HD-1 for 72 hours, the density of the cells reduced dramatically in comparison with that of the control group (Fig. 7(A)-a). The 05MG cells in the experimental group also changed to become longer than those in the control group.

acetylated histone H4 = assay: Western blotting of hyperacetylated histone H4 in C6 glioma cell lysates; assay type: cell-based, rat; details: C6 glioma cells
Protocol: Accumulation of hyperacetylated histone H4 was analyzed in the cell lysates by using Western Blotting and the antibody directed against acetylated histone H4 (Upstate). The C6 glioma cells were seeded at a density of 1×10^6 per 10cm culture dish. After 24 hours, the cells were treated with 10 µg/mL of NBM-HD-1 or 4mM sodium butyrate for several hours. The whole-cell lysates were prepared by using denaturing SDS sample buffer and then separated on 15% SDS-polyacrylamide gels. […] The amount of acetylated histones was hardly detectable in untreated C6 glioma cells. The amount of acetylated histone H4 of the cells treated with 4mM sodium butyrate for 2 hours increased. Sodium butyrate was then removed from the culture medium. After 6 hours, the amount of acetylated histone H4 decreased. The accumulation of acetylated histone H4 increased in the cells treated with NBM-HD-1 for 2 hours. […] The highest histone acetylation appeared at 6 hours after the compound had been removed. […] Because NBM-HD-1 is more hydrophobic than sodium butyrate, NBM-HD-1 can be retained in the cells longer than sodium butyrate and continuously induce the acetylation of histone H4.

For `COc1cc2c(c(O)c1CCC(C)(C)O)C(=O)C[C@@H](c1ccc(OC)c(OC)c1C/C=C(\C)CCCC(C)(C)O)O2` [NBM-HD-3], the “morphology of MCF-7 cells” value [1] was “change their morphology” and the “growth of MCF-7 cancer cells” value [1] was “can inhibit the growth of MCF-7 cancer cells in a dose-dependent manner”.

`COc1cc2c(c(O)c1CC=C(C)C)C(=O)C[C@@H](c1ccc(OC)c(OC)c1C/C=C(\C)CCCC(C)(C)O)O2` [NBM-HD-2] was tested, and the “morphology of MCF-7 cells” value [1] was “change their morphology” and the “growth of MCF-7 cancer cells” value [1] was “can inhibit the growth of MCF-7 cancer cells in a dose-dependent manner”.

With `CCCC(=O)[O-].[Na+]` [sodium butyrate, reference compound] the “growth of 05MG cells” value [2] was “could inhibit the proliferation of 05MG cancer cells”, the “accumulation of acetylated histone H4, treated for 2 hours” value (acetylated histone H4; 10 µg/mL NBM-HD-1 or 4mM sodium butyrate, 2 hours (Fig. 5)) was “increased” and the “amount of acetylated histone H4 after removal of the compound from the culture medium” value (acetylated histone H4; up to 6 hours after removal (Fig. 5)) was “decreased”.
